Assay results taken from US6897227B2, “Prodrugs of proton pump inhibitors” (Winston Pharmaceuticals, Inc., priority 2002, dated 2005).

Key:
[1] = Stability in Britton Robinson buffers (hydrolysis of prodrug to PPI, HPLC); conditions: Britton Robinson buffer, pH 7
Procedure: The stability of Compounds 1, 2, 3, 4 and 5 of the invention in aqueous solution (0.1 mg/mL) was investigated in Britton Robinson buffers of pH 3, pH 7, and pH 9, respectively. A solution of 0.1 mg/mL concentration of each compound in each buffer was prepared and the solutions were stored at 37° C. for 1 h and then the concentrations of test compounds were determined by HPLC.

gastric acid secretion = assay: Inhibition of gastric acid secretion in rat, intravenous administration; assay type: in vivo
Procedure: (§1) 3 hours after administration the abdomen of the rat was incised and the pylorus was ligated under light ether anethesia. Histamine (30 mg/kg) and carbachol (30 μg/kg) were subcutaneously injected for acid stimulation. Immediately the abdomen was closed. Two hours later, the esophagus was ligated and the stomach was removed. The gastric juice was collected and acid output was quantified by titration using 0.1 N NaOH solution. As a control experiment, 1 ml of 50 mM phosphate buffer (pH 7.4) solution was orally administrated without any prodrug or proton pump inhibitory drug. Acid output was quantified by same method as described above, showing maximum histamine and carbachol-stimulated gastric acid secretion. Percentage inhibition was calculated from the fractional responses elicited by the test compound and a control experiment.
Inhibition of gastric acid secretion after intravenous administration of compounds of the invention was also examined. Lansoprazole sodium salt (20 mg) was dissolved in 40% hydroxypropyl-beta-cyclodextrin. The compounds of the invention used in this experiment were dissolved in phosphate buffered saline solution of pH 7.4. Each compound was injected intravenously at a dose of 5 μmole/kg or 10 μmole/kg (μmole per kg body weight of rat) as indicated in Table 4 below. Between 2 to 4 hours after injection gastric juice was collected, and the percentage of inhibition was determined as described above.

[2] = system: histamine and carbachol-stimulated gastric acid secretion; assay: Inhibition of gastric acid secretion of the conscious male rat, oral administration; assay type: in vivo, rat (Sprague-Dawley); conditions: sodium salt, read-out: % inhibition of gastric acid secretion between 3-5 hours after administration; for inhibition in vivo at 20 µmol/kg: 20 μmole/kg; for inhibition in vivo at 40 µmol/kg: 40 μmole/kg; for inhibition in vivo at 10 µmol/kg: 10 μmole/kg
Procedure: Male rats (the Sprague-Dawley strain) were used in this experiment. OMEPRAZOLE sodium salt or LANSOPRAZOLE sodium salt (20 mg) was suspended in 10 ml of 0.1 N NaHCO3. 40 mg of each of the sodium salts of Compound 1, Compound 2, Compound 3, Compound 4, Compound 6 Compound 9, Compound 12, mixture (1:1) of Compound 16 and 17, mixture (1:1) of Compound 18 and 19, mixture (1:1) of Compound 20 and 21, mixture (1:1) of Compound 22 and 23, Compound 27, mixture (1:1) of Compound 34 and 35, and Compound 36 were dissolved in 10 ml of 50 mM sodium phosphate buffer, pH 7.4. The doses administered to the rats were as follows (μmole per kg body weight of the rat): OMEPRAZOLE (10 μmole/kg), LANSOPRAZOLE (10 μmole/kg), Compound 120 μmole/kg, Compound 2 40 μmole/kg, Compound 320 μmole/kg, Compound 420 μmole/kg, Compound 620 μmole/kg, Compound 940 μmole/kg, Compound 1240 μmole/kg, mixture (1:1) of Compound 16 and 17 40 μmole/kg, mixture (1:1) of Compound 18 and 19 40 μmole/kg, mixture (1:1) of Compound 20 and 21 40 μmole/kg, mixture (1:1) of Compound 22 and 23 40 μmole/kg, Compound 27 40 μmole/kg, mixture (1:1) of Compound 34 and 35 40 μmole/kg, and Compound 3640 μmole/kg. These drug solutions were orally administered.
as §1

[3] = Solubility in phosphate buffered saline buffer of pH 7.4 at 37° C.; assay type: physicochemical; conditions: aqueous buffer, sodium salts, phosphate buffered saline buffer pH 7.4, read-out: Solubility at 37° C. Conc.
Procedure: The solubility of the sodium salts of certain exemplary compounds of the present invention in a phosphate buffered saline buffer of pH 7.4 (50 mM sodium phosphate, 10 mM KCl, 0.1 M NaCl) and also in a more acidic Britton Robinson buffer of pH 3 (40 mM acetic acid, 40 mM phosphoric acid, 40 mM boric acid, 36 mM NaOH, and 19.6 mg/ml KCl) was also evaluated. […] The tested compounds were much less soluble little in the Britton Robinson buffer of pH 3, but still more soluble than the prior art compounds (a) through (f). This is understandable in view of the fact that in the buffer of pH 7.4 the compounds of the invention form a sodium salt, whereas in the buffer of pH 3 the compounds are less soluble free carboxylic acids. Thus, a solution of a sodium or other pharmaceutically acceptable salt of the compounds of the invention, or stated in an other way the compounds of the invention at pH 7 or above are highly soluble and therefore suitable for administration by intravenous injection.

[4] = Stability in plasma at 37° C. (gradient HPLC-UV), human plasma; assay type: in vitro ADME
Procedure: (§2) Exemplary test compounds (prodrugs) of the invention were incubated in plasma at 37° C., and the concentration of the compounds and also of the corresponding proton pump inhibitor compounds (PPI) were determined by a gradient HPLC-UV method. Although the half-lives of test compounds in plasma varies depending on their structure, nevertheless it is apparent that in plasma the compounds of the invention are converted into the corresponding proton pump inhibitor at a rate faster than the hydrolysis rate of the compound at neutral or near neutral pH.

[5] = Stability in plasma at 37° C. (gradient HPLC-UV), rat plasma; assay type: in vitro ADME
Procedure: as §2

[6] = Aqueous solubility (water / distilled water); assay type: physicochemical; conditions: free carboxylic acids
From the text: A further significant advantage of the proton pump inhibitor prodrugs of the present invention relative to the proton pump inhibitor prodrugs disclosed in U.S. Pat. No. 6,093,734, 6,559,167 and PCT Publication WO 00109498 and to all other prior art is their increased solubility.

solubility [3] [mg/mL] | half-life [4] [min] | half-life [5] [min] | SMILES | other results
> 30 | 12 | 14 | Cc1c(OCC(F)(F)F)ccnc1C[S+]([O-])c1nc2ccccc2n1S(=O)(=O)c1cccc(C(=O)O)c1 (centres unmarked) [Compound 1, 3-{2-[3-Methyl-4-(2,2,2-trifluoro-ethoxy)-pyridin-2-ylmethanesulfinyl]-benzimidazole-1-sulfonyl}benzoic acid] | half-life at 0.1 mg/mL [1]: > 50 h; % inhibition of gastric acid secretion between 2-4 hours after i.v. administration (gastric acid secretion; 5 μmole/kg): 83.7 ± 10.1%; % inhibition of gastric acid secretion between 2-4 hours after i.v. administration (gastric acid secretion; 10 μmole/kg): 90.6 ± 2.1%; inhibition in vivo at 20 µmol/kg [2]: 81.9 ± 7.1%
> 50 | 10 | 81 | COc1ccc(S(=O)(=O)n2c([S+]([O-])Cc3nccc(OCC(F)(F)F)c3C)nc3ccccc32)cc1C(=O)[O-].[Na+] (centres unmarked) [Compound 3, 2-methoxy-5-{2-[3-methyl-4-(2,2,2-trifluoro-ethoxy)-pyridin-2-ylmethanesulfinyl]benzimidazole-1-sulfonyl}-benzoic acid sodium salt] | half-life at 0.1 mg/mL [1]: > 50 h; inhibition in vivo at 20 µmol/kg [2]: 84.9 ± 13.6%
– | 60 | 52 | Cc1cc(OCC(=O)NCCCCCC(=O)[O-])cc(C)c1S(=O)(=O)n1c([S+]([O-])Cc2nccc(OCC(F)(F)F)c2C)nc2ccccc21.[Na+] (centres unmarked) [Compound 6, 6-[2-(3,5-Dimethyl-4-{2-[3-methyl-4-(2,2,2-trifluoro-ethoxy)-pyridin-2-ylmethanesulfinyl]-benzimidazole-1-sulfonyl}-phenoxy)acetylamino]hexanoic acid sodium salt] | inhibition in vivo at 20 µmol/kg [2]: 53.5 ± 18.3%
> 30 | – | – | COc1ccc2c(c1)nc([S+]([O-])Cc1ncc(C)c(OC)c1C)n2S(=O)(=O)c1ccc(OCC(=O)[O-])cc1.[Na+] (centres unmarked) [Compound 9, {4-[5-methoxy-2-(4-methoxy-3,5-dimethyl-pyridin-2-ylmethanesulfinyl)-benzimidazole-1-sulfonyl]-phenoxy}-acetic acid sodium salt] | inhibition in vivo at 40 µmol/kg [2]: 74.4 ± 25.1%; solubility [6]: > 0.1 mg/mL
– | 14 | 53 | Cc1c(OCC(F)(F)F)ccnc1C[S+]([O-])c1nc2ccccc2n1S(=O)(=O)c1ccc(OCC(=O)NCCCC(=O)[O-])cc1C(C)C.[Na+] (centres unmarked) [Compound 11] | –
– | – | 14 | Cc1ccc(C(=O)[O-])cc1S(=O)(=O)n1c([S+]([O-])Cc2nccc(OCC(F)(F)F)c2C)nc2ccccc21.[Na+] (centres unmarked) [Compound 27, 3-{2-[3-Methyl-4-(2,2,2-trifluoro-ethoxy)-pyridin-2-yl-methanesulfinyl]-benzimidazole-1-sulfonyl}-4-methylbenzoic acid sodium salt] | inhibition in vivo at 40 µmol/kg [2]: 96.7 ± 1.3%
– | – | 317 | Cc1cc(OCC(=O)[O-])cc(C(C)C)c1S(=O)(=O)n1c([S+]([O-])Cc2nccc(OCC(F)(F)F)c2C)nc2ccccc21.[Na+] (centres unmarked) [Compound 39, 4-[2-{3-Methyl-4-(2,2,2-trifluoroethoxy)pyridin-2-yl-methanesulfinyl}-benzimidazole-1-sulfonyl]-3-isopropyl-5-methylphenoxyacetic acid sodium salt] | –

The remaining lines, values behind:

SMILES | solubility [3] [mg/mL] | half-life [4] [min] | half-life [5] [min] | other results
CCC(Oc1ccc(S(=O)(=O)n2c([S+]([O-])Cc3nccc(OCC(F)(F)F)c3C)nc3ccccc32)cc1)C(=O)[O-].[Na+] (centres unmarked) [Compound 4 Na salt, 2-(4-{2-[3-methyl-4-(2,2,2-trifluoro-ethoxy)-pyridin-2-ylmethanesulfinyl]-benzimidazole-1-sulfonyl}phenoxy)butyric acid sodium salt] | – | 60 | 98 | –
Cc1cc(OCC(=O)[O-])cc(C)c1S(=O)(=O)n1c([S+]([O-])Cc2nccc(OCC(F)(F)F)c2C)nc2ccccc21.[Na+] (centres unmarked) [Compound 5] | > 30 | – | 31 | half-life at 0.1 mg/mL [1]: > 50 h
COCCCOc1ccnc(C[S+]([O-])c2nc3ccccc3n2S(=O)(=O)c2ccc(OCC(=O)[O-])cc2)c1C.[Na+] (centres unmarked) [Compound 8, (4-{2-[4-(3-Methoxy-propoxy)-3-methyl-pyridin-2-ylmethanesulfinyl]-benzimidazole-1-sulfonyl}-phenoxy)-acetic acid sodium salt] | > 30 | – | – | –
COc1ccc2nc([S+]([O-])Cc3ncc(C)c(OC)c3C)n(S(=O)(=O)c3ccc(OCC(=O)[O-])cc3)c2c1.[Na+] (centres unmarked) [Compound 10, {4-[6-methoxy-2-(4-methoxy-3,5-dimethyl-pyridin-2-ylmethanesulfinyl)-benzimidazole-1-sulfonyl]-phenoxy}-acetic acid sodium salt] | – | – | – | % inhibition of gastric acid secretion between 2-4 hours after i.v. administration (gastric acid secretion; 5 μmole/kg): 18.3 ± 11.9%
Cc1c(OCC(F)(F)F)ccnc1C[S+]([O-])c1nc2ccccc2n1S(=O)(=O)c1ccc(OCC(=O)[O-])c(OCC(=O)[O-])c1.[Na+].[Na+] (centres unmarked) [Compound 12, (2-Carboxymethoxy-4-{2-[3-methyl-4-(2,2,2-trifluoro-ethoxy)-pyridin-2-ylmethanesulfinyl]-benzimidazole-1-sulfonyl}-phenoxy)-acetic acid di-sodium salt] | > 50 | 51 | 78 | % inhibition of gastric acid secretion between 2-4 hours after i.v. administration (gastric acid secretion; 5 μmole/kg): 89.2 ± 6.8%; % inhibition of gastric acid secretion between 2-4 hours after i.v. administration (gastric acid secretion; 10 μmole/kg): 92.6 ± 2.9%; inhibition in vivo at 40 µmol/kg [2]: 82.8 ± 9.6%
COc1ccc(S(=O)(=O)n2c([S+]([O-])Cc3nccc(OCC(F)(F)F)c3C)nc3ccccc32)cc1CCC(=O)[O-].[Na+] (centres unmarked) [Compound 36, 3-[2-Methoxy-5-{2-(3-methyl-4-(2,2,2-trifluoroethoxy)pyridin-2-yl-methanesulfinyl)-benzimidazole-1-sulfonyl}phenyl]propionic acid sodium salt] | – | – | 19 | inhibition in vivo at 40 µmol/kg [2]: 89.8 ± 6.8%
Cc1c(OCC(F)(F)F)ccnc1C[S+]([O-])c1nc2ccccc2[nH]1 (centres unmarked) [LANSOPRAZOLE, 2-[3-methyl-4-(2,2,2-trifluoroethoxy)pyridin-2-yl-methanesulfinyl]-1H-benzimidazole, reference compound] | – | – | – | % inhibition of gastric acid secretion between 2-4 hours after i.v. administration (gastric acid secretion; 5 μmole/kg): 91.5 ± 5.0%; inhibition in vivo at 10 µmol/kg [2]: 67.6 ± 14.7%
COc1ccc2[nH]c([S+]([O-])Cc3ncc(C)c(OC)c3C)nc2c1 (centres unmarked) [OMEPRAZOLE, 5-methoxy-2-(4-methoxy-3,5-dimethyl-pyridin-2-yl-methanesulfinyl)-1H-benzimidazole, reference compound] | – | – | – | inhibition in vivo at 10 µmol/kg [2]: 54.6 ± 10.4%
